Data taken from PMC8903829 (eLife, 2022).
Where “and” joins values, the source holds several entries; their conditions need not be identical. Identical values can stand only once. Like-named read-outs stand apart in the source and are kept apart here.

Legend:
Scn8a^N1768D/+ mice = test: Modified 6 Hz psychomotor seizure assay; type: in vivo, mouse; settings: for SCN8a mouse 6Hz chronic, Fraction of animals seizing: day 7, 2 hr after 13th dose; for SCN8a mouse 6Hz acute, Fraction of animals seizing: 2 hr
Procedure: (§1) Phenytoin was formulated in physiologic saline and was administered intraperitoneally (i.p.) using a 25-gauge needle at a dose volume of 10 mL/kg. All compounds were administered 2 hr prior to electrical seizure induction for all seizure models employed in this study.
Scn8a^N1768D/+heterozygous mice were tested at 5 weeks of age (p35). The modified 6 Hz seizure assay in Scn8a^N1768D/+heterozygous mice was adapted from the traditional 6 Hz assay psychomotor seizure assay to provide a measure of in vivo on target (NaV1.6 mediated) efficacy ([Barton et al., 2001]). The modified assay used a low frequency (6 Hz) but long-duration stimulation (3 s) to induce seizures. […] An electroshock (6 Hz, 12 mA) was delivered for 3 s (at 0.3-ms pulse interval) by corneal electrodes (Electro Convulsive Therapy Unit 57,800 from Ugo Basile). Immediately prior to the electroshock, the animals’ eyes were anesthetized with a drop of Alcaine (0.5% proparacaine hydrochloride).
An animal was considered protected in the assay upon prevention of GTC with hindlimb extension and was then scored ‘0’. An animal displaying GTC with hindlimb extension was considered not protected and is then scored ‘1’. The experimenter scoring the seizure behavior was blinded to the treatment.

[1] = tested on: wild-type Sprague Dawley rats; test: DC-Maximal electroshock seizure assay (DC-MES); type: in vivo, rat; settings: for WT rat DC-MES, fraction of animals seizing: sheet Figure 5G, 5H, 5I (rats)
Procedure: as §1
The maximal electroshock seizure (MES) assay has been extensively used in the search for anticonvulsant substances ([Löscher et al., 1991]; [Piredda et al., 1985]; [White et al., 1995]). The MES assay is sensitive to nonselective NaV inhibitors. It is considered a model for generalized tonic-clonic (GTC) seizures and provides an assessment of seizure spread. Briefly, an electroshock of direct current (DC) was delivered by corneal electrodes (Electro Convulsive Therapy Unit 57,800 from Ugo Basile). The parameters of stimulation were different between mice and rats. In CF1 mice aged 9–12 weeks, a direct current of 50 mA (60 Hz) was delivered for 0.2 s (pulse width of 0.5ms), whereas in Sprague Dawley (SD) rats aged 5–6 weeks, a direct current of 150 mA (60 Hz) was delivered for 0.3 s (pulse width of 0.5ms). Immediately prior to the electroshock, the animals’ eyes were anesthetized with a drop of Alcaine (0.5% proparacaine hydrochloride).
An animal was considered protected in the assay in the absence of a GTC with hindlimb extension and is then scored ‘0’. An animal displaying GTC with hindlimb extension was considered not protected and is then scored ‘1’. The experimenter scoring the seizure behavior was blinded to the treatment.

hNaV1.6 = target: T1, hNaV1.6 (Homo sapiens, UniProt Q9UQD0); test: Qube 384 automated patch-clamp, inactivated-state inhibition; type: cell-based; settings: for hNav1.6 current in (352)/(Vehicle), mean: Inactivated (-45mV)
T1 construct: expression vector containing the full-length cDNA coding for specific human and mouse sodium channel α-subunit; expressed in transfected cells
T1 sequence (Q9UQD0 whole entry): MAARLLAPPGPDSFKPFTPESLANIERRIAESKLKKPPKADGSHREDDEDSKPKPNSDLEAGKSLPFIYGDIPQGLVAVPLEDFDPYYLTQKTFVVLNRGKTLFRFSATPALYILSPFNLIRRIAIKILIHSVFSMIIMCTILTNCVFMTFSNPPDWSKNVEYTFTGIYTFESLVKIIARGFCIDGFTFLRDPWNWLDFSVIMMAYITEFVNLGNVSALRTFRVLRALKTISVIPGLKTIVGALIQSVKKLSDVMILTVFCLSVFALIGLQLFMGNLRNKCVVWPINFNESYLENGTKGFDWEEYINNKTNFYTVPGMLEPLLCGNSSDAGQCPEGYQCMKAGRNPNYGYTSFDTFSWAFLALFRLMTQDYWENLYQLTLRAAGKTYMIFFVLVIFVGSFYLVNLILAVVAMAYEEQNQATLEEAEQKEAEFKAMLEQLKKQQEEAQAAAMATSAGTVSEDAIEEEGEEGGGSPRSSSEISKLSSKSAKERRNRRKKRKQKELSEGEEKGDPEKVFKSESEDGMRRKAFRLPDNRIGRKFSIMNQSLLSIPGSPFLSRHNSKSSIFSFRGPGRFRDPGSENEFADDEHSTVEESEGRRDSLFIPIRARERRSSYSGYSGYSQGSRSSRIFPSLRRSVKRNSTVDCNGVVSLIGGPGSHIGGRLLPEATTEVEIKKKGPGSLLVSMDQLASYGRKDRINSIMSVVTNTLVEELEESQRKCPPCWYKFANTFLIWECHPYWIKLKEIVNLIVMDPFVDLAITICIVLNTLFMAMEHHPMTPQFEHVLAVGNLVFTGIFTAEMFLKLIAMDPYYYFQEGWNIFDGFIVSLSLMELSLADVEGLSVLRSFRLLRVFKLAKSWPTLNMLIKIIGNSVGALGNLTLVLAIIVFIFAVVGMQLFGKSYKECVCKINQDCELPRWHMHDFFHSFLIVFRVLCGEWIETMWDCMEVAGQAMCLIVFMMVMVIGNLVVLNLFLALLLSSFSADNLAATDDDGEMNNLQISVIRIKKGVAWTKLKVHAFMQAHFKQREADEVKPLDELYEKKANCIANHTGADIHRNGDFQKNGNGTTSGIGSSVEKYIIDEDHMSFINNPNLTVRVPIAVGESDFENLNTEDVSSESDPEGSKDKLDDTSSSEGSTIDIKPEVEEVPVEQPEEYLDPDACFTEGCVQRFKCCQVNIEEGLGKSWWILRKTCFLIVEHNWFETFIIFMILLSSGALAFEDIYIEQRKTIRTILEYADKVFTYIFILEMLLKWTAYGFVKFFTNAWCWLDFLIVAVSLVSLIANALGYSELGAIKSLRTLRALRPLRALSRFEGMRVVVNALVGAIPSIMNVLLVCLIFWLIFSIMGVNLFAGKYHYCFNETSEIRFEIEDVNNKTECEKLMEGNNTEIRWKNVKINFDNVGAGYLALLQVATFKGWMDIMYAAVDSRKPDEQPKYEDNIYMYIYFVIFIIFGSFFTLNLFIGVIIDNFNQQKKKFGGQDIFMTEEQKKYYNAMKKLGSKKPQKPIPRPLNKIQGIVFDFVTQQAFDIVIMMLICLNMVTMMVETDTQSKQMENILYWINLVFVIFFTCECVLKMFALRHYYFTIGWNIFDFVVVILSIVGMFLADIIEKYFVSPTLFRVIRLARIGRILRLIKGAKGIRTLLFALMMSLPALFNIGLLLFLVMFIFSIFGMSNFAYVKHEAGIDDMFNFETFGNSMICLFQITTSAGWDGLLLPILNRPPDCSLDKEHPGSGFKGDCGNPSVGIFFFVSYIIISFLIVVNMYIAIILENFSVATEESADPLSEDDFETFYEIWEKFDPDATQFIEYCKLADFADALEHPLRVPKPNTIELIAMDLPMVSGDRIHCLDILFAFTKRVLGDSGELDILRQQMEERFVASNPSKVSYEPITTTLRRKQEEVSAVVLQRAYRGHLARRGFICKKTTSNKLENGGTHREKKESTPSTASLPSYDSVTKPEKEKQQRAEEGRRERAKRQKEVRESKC

hNaV1.4 = hNaV1.4 (Homo sapiens, UniProt P35499); test: as above
Chain of hNaV1.4 (P35499 whole entry): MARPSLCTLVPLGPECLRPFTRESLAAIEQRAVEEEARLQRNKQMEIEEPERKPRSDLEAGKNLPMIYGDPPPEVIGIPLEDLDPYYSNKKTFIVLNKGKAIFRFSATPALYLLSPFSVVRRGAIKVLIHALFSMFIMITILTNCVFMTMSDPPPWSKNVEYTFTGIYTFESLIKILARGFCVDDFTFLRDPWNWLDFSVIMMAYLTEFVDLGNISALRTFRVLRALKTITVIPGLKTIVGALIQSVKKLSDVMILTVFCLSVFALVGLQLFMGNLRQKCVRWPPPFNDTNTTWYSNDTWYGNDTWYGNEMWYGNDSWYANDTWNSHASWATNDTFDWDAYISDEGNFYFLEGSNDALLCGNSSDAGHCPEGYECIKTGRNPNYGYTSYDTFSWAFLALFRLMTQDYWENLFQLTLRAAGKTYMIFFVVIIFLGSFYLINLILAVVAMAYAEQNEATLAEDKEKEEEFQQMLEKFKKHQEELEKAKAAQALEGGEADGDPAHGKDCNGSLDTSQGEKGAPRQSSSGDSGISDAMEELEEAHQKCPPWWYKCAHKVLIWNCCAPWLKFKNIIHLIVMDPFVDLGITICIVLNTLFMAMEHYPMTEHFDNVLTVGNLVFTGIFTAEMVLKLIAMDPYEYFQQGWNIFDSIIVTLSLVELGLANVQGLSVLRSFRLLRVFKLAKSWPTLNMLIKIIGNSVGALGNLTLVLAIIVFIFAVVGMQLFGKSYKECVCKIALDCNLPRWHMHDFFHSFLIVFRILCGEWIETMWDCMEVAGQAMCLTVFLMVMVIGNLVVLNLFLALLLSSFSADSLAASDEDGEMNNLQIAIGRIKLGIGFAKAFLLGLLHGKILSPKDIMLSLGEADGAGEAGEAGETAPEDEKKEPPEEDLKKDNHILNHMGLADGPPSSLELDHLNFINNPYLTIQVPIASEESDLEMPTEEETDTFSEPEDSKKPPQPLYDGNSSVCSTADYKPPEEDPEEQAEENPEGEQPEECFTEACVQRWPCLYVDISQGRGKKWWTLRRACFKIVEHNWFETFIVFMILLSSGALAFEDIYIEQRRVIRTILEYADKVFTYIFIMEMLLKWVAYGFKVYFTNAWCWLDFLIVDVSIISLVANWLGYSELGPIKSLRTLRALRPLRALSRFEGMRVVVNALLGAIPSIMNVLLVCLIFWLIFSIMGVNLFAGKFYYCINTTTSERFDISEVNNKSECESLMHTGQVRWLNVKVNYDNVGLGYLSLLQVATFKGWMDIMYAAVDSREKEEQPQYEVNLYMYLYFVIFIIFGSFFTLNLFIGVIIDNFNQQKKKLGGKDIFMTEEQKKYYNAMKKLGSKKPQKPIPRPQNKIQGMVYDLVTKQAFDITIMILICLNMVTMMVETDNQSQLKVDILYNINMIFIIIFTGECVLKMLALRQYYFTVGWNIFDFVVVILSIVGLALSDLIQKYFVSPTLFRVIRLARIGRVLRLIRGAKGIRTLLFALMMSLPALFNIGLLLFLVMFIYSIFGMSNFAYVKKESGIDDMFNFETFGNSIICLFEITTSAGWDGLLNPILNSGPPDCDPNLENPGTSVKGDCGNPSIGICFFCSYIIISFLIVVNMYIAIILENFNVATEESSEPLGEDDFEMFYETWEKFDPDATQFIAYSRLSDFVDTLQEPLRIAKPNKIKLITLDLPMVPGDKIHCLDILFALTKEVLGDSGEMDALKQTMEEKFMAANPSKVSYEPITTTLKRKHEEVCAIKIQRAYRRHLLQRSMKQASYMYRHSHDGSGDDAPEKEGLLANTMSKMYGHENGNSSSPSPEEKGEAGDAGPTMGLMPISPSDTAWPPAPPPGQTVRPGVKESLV

[2] = Mus musculus, Scn8a^N1768D/+ 6 Hz model, 2 hr post dose (oral; phenytoin i.p.), read-out: brain EC50
[3] = WT rat DC-MES (oral; phenytoin i.p.), read-out: plasma EC50
[4] = WT rat DC-MES, 2 hr post dose (oral; phenytoin i.p.), read-out: brain EC50

COC[C@@H](NC(C)=O)C(=O)NCc1ccccc1 [lacosamide, Lacosamide, reference compound]
EC50 (Scn8a^N1768D/+ mice; Mus musculus, 2 h, read-out: brain EC50): 3.3 µM | SCN8A mouse 6HZ Fraction of animals seizing (Scn8a^N1768D/+ mice; Study18007, 3 mg/kg): 0.429 | SCN8A mouse 6HZ Fraction of animals seizing (Scn8a^N1768D/+ mice; Study18007, 10 mg/kg): 0.286 | SCN8A mouse 6HZ Fraction of animals seizing (Scn8a^N1768D/+ mice; Study18007, 30 mg/kg): 0.286 | SCN8A mouse 6HZ Fraction of animals seizing (Scn8a^N1768D/+ mice; Study18011, 1 mg/kg): 0.858 | SCN8A mouse 6HZ Fraction of animals seizing (Scn8a^N1768D/+ mice; Study18011, 30 mg/kg): 0.5 | SCN8A mouse 6HZ Fraction of animals seizing (Scn8a^N1768D/+ mice; Study18011, 56 mg/kg): 0.286 | SCN8A mouse 6HZ Fraction of animals seizing (Scn8a^N1768D/+ mice; Study18028, 10 mg/kg): 0.375 | SCN8A mouse 6HZ Fraction of animals seizing (Scn8a^N1768D/+ mice; Study18042, 10 mg/kg): 0.5 | EC50 ([1]; Rattus norvegicus, 2 h, read-out: brain EC50): 4.3 µM | EC50 ([1]; Rattus norvegicus, read-out: plasma EC50): 24.4 µM | Rat DC-MES Fraction of animals seizing ([1]; Study18060, 2 mg/kg): 1 | Rat DC-MES Fraction of animals seizing ([1]; Study18060, 6 mg/kg): 0.8571 | Rat DC-MES Fraction of animals seizing ([1]; Study18060, 12 mg/kg): 0.5714 | Rat DC-MES Fraction of animals seizing ([1]; Study18068, 100 mg/kg): 0

NC(=O)N1c2ccccc2C=Cc2ccccc21 [carbamazepine, Carbamazepine, reference compound]
EC50 (Scn8a^N1768D/+ mice; [2]): 9.4 µM | SCN8A mouse 6HZ Fraction of animals seizing (Scn8a^N1768D/+ mice; Study15064, 3 mg/kg): 0.5 | SCN8A mouse 6HZ Fraction of animals seizing (Scn8a^N1768D/+ mice; Study15064, 10 mg/kg): 0.75 | SCN8A mouse 6HZ Fraction of animals seizing (Scn8a^N1768D/+ mice; Study16152, 3 mg/kg): 0.75 | SCN8A mouse 6HZ Fraction of animals seizing (Scn8a^N1768D/+ mice; Study16152, 10 mg/kg): 0.667 | SCN8A mouse 6HZ Fraction of animals seizing (Scn8a^N1768D/+ mice; Study16152, 30 mg/kg): 0 | SCN8A mouse 6HZ Fraction of animals seizing (Scn8a^N1768D/+ mice; Study16162, 3 mg/kg): 0.8 | SCN8A mouse 6HZ Fraction of animals seizing (Scn8a^N1768D/+ mice; Study16162, 10 mg/kg): 0.4 | SCN8A mouse 6HZ Fraction of animals seizing (Scn8a^N1768D/+ mice; Study16162, 100 mg/kg): 0 | Rat DC-MES Fraction of animals seizing ([1]; Study18058, 10 mg/kg): 0.857 | Rat DC-MES Fraction of animals seizing ([1]; Study18058, 20 mg/kg): 0.714 | Rat DC-MES Fraction of animals seizing ([1]; Study18068, 30 mg/kg): 0.571 | Rat DC-MES Fraction of animals seizing ([1]; Study18068, 100 mg/kg): 0.428 | Rat DC-MES Fraction of animals seizing ([1]; Study18085, 300 mg/kg): 0.285 | EC50 [1, 3]: 30 µM | EC50 [1, 4]: 36 µM

Cc1cc(S(=O)(=O)Nc2cscn2)c(F)cc1N(C)[C@H]1CCN(Cc2ccccc2)C1 [NBI-921352]
IC50 (hNaV1.6): 0.051 µM | hNav1.6 current in (352)/(Vehicle), mean (hNaV1.6; -5 Log M): 0.96 | hNav1.6 current in (352)/(Vehicle), mean (hNaV1.6; -5.47716 Log M): 0.91 | hNav1.6 current in (352)/(Vehicle), mean (hNaV1.6; -5.95429 Log M): 0.87 | hNav1.6 current in (352)/(Vehicle), mean (hNaV1.6; -6.47756 Log M): 0.83 | hNav1.6 current in (352)/(Vehicle), mean (hNaV1.6; -6.91009 Log M): 0.68 | hNav1.6 current in (352)/(Vehicle), mean (hNaV1.6; -6.95468 Log M): 0.66 | hNav1.6 current in (352)/(Vehicle), mean (hNaV1.6; -7.38722 Log M): 0.57 | hNav1.6 current in (352)/(Vehicle), mean (hNaV1.6; -7.4318 Log M): 0.52 | hNav1.6 current in (352)/(Vehicle), mean (hNaV1.6; -7.85387 Log M): 0.25 | hNav1.6 current in (352)/(Vehicle), mean (hNaV1.6; -8.30103 Log M): 0.16 | hNav1.6 current in (352)/(Vehicle), mean (hNaV1.6; -8.39794 Log M): 0.12 | hNav1.6 current in (352)/(Vehicle), mean (hNaV1.6; -9.34679 Log M): 0.01 | SCN8a mouse 6Hz chronic, Fraction of animals seizing (Scn8a^N1768D/+ mice; 2 mg/kg PO every 12 hr): 0.5 | SCN8a mouse 6Hz acute, Fraction of animals seizing (Scn8a^N1768D/+ mice; 2 mg/kg PO single dose): 0.8 | SCN8a mouse 6Hz acute, Fraction of animals seizing (Scn8a^N1768D/+ mice; 3 mg/kg PO single dose): 0.8 | SCN8a mouse 6Hz chronic, Fraction of animals seizing (Scn8a^N1768D/+ mice; 6 mg/kg PO every 12 hr): 0.34 and 0.429 and 0.5 | SCN8a mouse 6Hz acute, Fraction of animals seizing (Scn8a^N1768D/+ mice; 6 mg/kg PO single dose): 0.5 and 0.667 and 0.834 and 0.715 | SCN8a mouse 6Hz acute, Fraction of animals seizing (Scn8a^N1768D/+ mice; 10 mg/kg PO single dose): 0.57 and 0.4 | SCN8a mouse 6Hz acute, Fraction of animals seizing (Scn8a^N1768D/+ mice; 30 mg/kg PO single dose): 0.43 and 0.5 and 0.333 and 0.4 | SCN8a mouse 6Hz acute, Fraction of animals seizing (Scn8a^N1768D/+ mice; 200 mg/kg PO single dose): 0 | SCN8a mouse 6Hz acute, Fraction of animals seizing (Scn8a^N1768D/+ mice; 300 mg/kg PO single dose): 0 | EC50 (Scn8a^N1768D/+ mice; [2]): 0.064 µM | EC50 (Scn8a^N1768D/+ mice; Mus musculus, Scn8a^N1768D/+ 6 Hz model, 2 hr post dose, read-out: plasma EC50): 0.037 µM | ED50 (Scn8a^N1768D/+ mice; Mus musculus, oral, 2 hr prior to stimulation, read-out: ED50, prevention of GTC with hindlimb extension): 15 mg/kg | EC50 [1, 3]: 0.15 µM | EC50 [1, 4]: 0.037 µM | ED50 ([1]; WT rat DC-MES, oral, 2 hr, read-out: ED50, prevention of GTC with hindlimb extension): 3.7 mg/kg | WT rat DC-MES, fraction of animals seizing ([1]; 1 mg/kg PO every 12 hr, day 7, 2 hr after 13th dose): 0.4286 | WT rat DC-MES, fraction of animals seizing ([1]; 1 mg/kg PO single dose, 2 hr, 1 mg/kg): 0.75 and 1 | WT rat DC-MES, fraction of animals seizing ([1]; 3 mg/kg PO every 12 hr, day 7, 2 hr after 13th dose): 0.25 | WT rat DC-MES, fraction of animals seizing ([1]; 3 mg/kg PO single dose, 2 hr, 3 mg/kg): 0.6 and 0.5714 and 0.4 | WT rat DC-MES, fraction of animals seizing ([1]; 10 mg/kg PO single dose, 2 hr): 0.1429 | WT rat DC-MES, fraction of animals seizing ([1]; 30 mg/kg PO single dose, 2 hr): 0 | IC50 (hNaV1.4): > 30 µM | inhibition at 30 µM (hNaV1.4; read-out: inhibition at the highest concentration tested): < 50%
